Assays:
S. pneumoniae = test: Biological activity against bacterial strains: S. pneumoniae; format: cell-based, Streptococcus pneumoniae; parameters: Biological Activity, S. pneumoniae ATCC6301 / Biological Activity, S. pneumoniae ATCC700671 / Biological Activity, S. pneumoniae ATCC700676* / Biological Activity, S. pneumoniae ATCC700677* / Biological Activity, S. pneumoniae ATCC700905* / Biological Activity, S. pneumoniae ATCC700906* / Biological Activity, S. pneumoniae ATCC49619: unit not given here; conditions: for Biological Activity, S. pneumoniae ATCC6301: strain ATCC6301; for Biological Activity, S. pneumoniae ATCC49619: strain ATCC49619; for Biological Activity, S. pneumoniae ATCC700671: strain ATCC700671; for Biological Activity, S. pneumoniae ATCC700676*: strain ATCC700676, macrolide resistant strain; for Biological Activity, S. pneumoniae ATCC700677*: strain ATCC700677, macrolide resistant strain; for Biological Activity, S. pneumoniae ATCC700905*: strain ATCC700905, macrolide resistant strain; for Biological Activity, S. pneumoniae ATCC700906*: strain ATCC700906, macrolide resistant strain
S. aureus = test: Biological activity against bacterial strains: S. aureus; format: cell-based, Staphylococcus aureus; parameters: unit not given here; conditions: for Biological Activity, S. aureus ATCC6538p: strain ATCC6538p; for Biological Activity, S. aureus ATCC14154*: strain ATCC14154, macrolide resistant strain; for Biological Activity, S. aureus ATCC29213: strain ATCC29213; for Biological Activity, S. aureus ATCC33591*: strain ATCC33591, macrolide resistant strain; for Biological Activity, S. aureus ATCCBAA-39*: strain ATCCBAA-39, macrolide resistant strain; for Biological Activity, S. aureus ATCCBAA-44*: strain ATCCBAA-44, macrolide resistant strain
S. epidermidis = test: Biological activity against bacterial strains: S. epidermidis; format: cell-based, Staphylococcus epidermidis; conditions: strain ATCC12228
E. faecalis = test: Biological activity against bacterial strains: E. faecalis; format: cell-based, Enterococcus faecalis; conditions: strain ATCC51575

SMILES | Biological Activity, S. pneumoniae ATCC6301 (S. pneumoniae) | Biological Activity, S. pneumoniae ATCC49619 (S. pneumoniae) | Biological Activity, S. pneumoniae ATCC700671 (S. pneumoniae) | Biological Activity, S. pneumoniae ATCC700676* (S. pneumoniae) | Biological Activity, S. pneumoniae ATCC700677* (S. pneumoniae) | Biological Activity, S. pneumoniae ATCC700905* (S. pneumoniae) | Biological Activity, S. pneumoniae ATCC700906* (S. pneumoniae) | Biological Activity, S. aureus ATCC6538p (S. aureus) | Biological Activity, S. aureus ATCC14154* (S. aureus) | Biological Activity, S. aureus ATCC29213 (S. aureus) | Biological Activity, S. aureus ATCC33591* (S. aureus) | Biological Activity, S. aureus ATCCBAA-39* (S. aureus) | Biological Activity, S. aureus ATCCBAA-44* (S. aureus) | Biological Activity, S. epidermidis ATCC12228 (S. epidermidis) | Biological Activity, E. faecalis ATCC51575 (E. faecalis)
CCC1OC(=O)CC(O)C(C)C(OC2OC(C)C(O)C(N(C)C)C2O)C(CC=O)CC(C)C(=NOCC#Cc2cnc3ccccc3c2)C=CC(C)=CC1CO (single isomer, unassigned) [Compound D] | 0.025 | 0.049 | 0.049 | 0.049 | >12.5 | 0.049 | >12.5 | 0.098 | 0.78 | 0.39 | >12.5 | >12.5 | >12.5 | 0.20 | >12.5
CCC1OC(=O)CC(O)C(C)C(OC2OC(C)C(O)C(N(C)C)C2O)C(CCN2CC(C)CC(C)C2)CC(C)C(=NOCc2ccc(F)cc2)C=CC(C)=CC1COC1OC(C)C(O)C(OC)C1OC (single isomer, unassigned) [Compound P] | 0.39 | 0.78 | 0.78 | 3.12 | 6.25 | 3.12 | 12.5 | 0.39 | 6.25 | 0.78 | >12.5 | >12.5 | >12.5 | 0.78 | >12.5
CC[C@H]1OC(=O)C[C@@H](O)[C@H](C)[C@@H](OC2OC(C)C(O)C(N(C)C)C2O)[C@@H](CC=O)C[C@@H](C)C(=N/OCc2ccc(F)cc2)/C=C/C(C)=C/C1CO (stereo partly drawn) [Compound IId] | 0.025 | 0.2 | 0.2 | 0.025 | 1.56 | 0.2 | >12.5 | 0.39 | 1.56 | 1.56 | >12.5 | >12.5 | >12.5 | 0.78 | >12.5
CC[C@H]1OC(=O)C[C@@H](O)[C@H](C)[C@@H](OC2OC(C)C(O)C(N(C)C)C2O)[C@@H](CC=O)C[C@@H](C)C(=N/OCCOc2ccccc2)/C=C/C(C)=C/C1CO (stereo partly drawn) [Compound IIa] | 0.20 | 0.20 | 0.39 | 0.20 | 3.12 | 0.39 | >12.5 | 0.78 | 1.56 | 1.56 | >12.5 | >12.5 | >12.5 | 1.56 | >12.5
CCC1OC(=O)CC(O)C(C)C(OC2OC(C)C(O)C(N(C)C)C2O)C(CC=O)CC(C)C(=NOCC=Cc2cnc3ccccc3c2)C=CC(C)=CC1CO (single isomer, unassigned) [Compound F] | 0.025 | 0.025 | 0.049 | 0.049 | >12.5 | 0.049 | >12.5 | 0.098 | 0.39 | 0.39 | >12.5 | >12.5 | >12.5 | 0.049 | >12.5
CC[C@H]1OC(=O)C[C@@H](O)[C@H](C)[C@@H](OC2OC(C)C(O)C(N(C)C)C2O)[C@@H](CC=O)C[C@@H](C)C(=N\OCc2ccc(F)cc2)/C=C/C(C)=C/C1CO (stereo partly drawn) [Compound IIc] | 0.2 | 0.2 | 0.39 | 0.2 | 3.12 | 0.39 | >12.5 | 0.78 | 1.56 | 1.56 | >12.5 | >12.5 | >12.5 | 1.56 | >12.5
CCC1OC(=O)CC(O)C(C)C(OC2OC(C)C(O)C(N(C)C)C2O)C(CCN2CC(C)CC(C)C2)CC(C)C(=NOCCCOc2ccc3ncccc3c2)C=CC(C)=CC1COC1OC(C)C(O)C(OC)C1OC (single isomer, unassigned) [Compound K] | 0.01 | 0.098 | 0.025 | 0.049 | 0.049 | 0.20 | >12.5 | 0.20 | 0.39 | 0.39 | >12.5 | >12.5 | >12.5 | 0.39 | >12.5
CCC1OC(=O)CC(O)C(C)C(OC2OC(C)C(O)C(N(C)C)C2O)C(CCN2CC(C)CC(C)C2)CC(C)C(=NOCCCOc2ccc3ncccc3c2)C=CC(C)=CC1CO (stereo not drawn) [Compound R] | 6.25 | 6.25 | 6.25 | >12.5 | >12.5 | >12.5 | >12.5 | 12.5 | >12.5 | >12.5 | >12.5 | >12.5 | >12.5 | >12.5 | >12.5
CC[C@H]1OC(=O)C[C@@H](O)[C@H](C)[C@@H](O[C@@H]2O[C@H](C)[C@@H](O)[C@H](N(C)C)[C@H]2O)[C@@H](CCN2C[C@H](C)C[C@H](C)C2)C[C@@H](C)C(=O)/C=C/C(C)=C/[C@@H]1CO[C@@H]1O[C@H](C)[C@@H](O)[C@@H](OC)[C@H]1OC [Tilm, tilmicosin, reference compound] | 0.39 | 1.56 | 0.78 | 0.78 | 6.25 | 1.56 | >12.5 | 0.098 | 0.39 | 0.20 | >12.5 | >12.5 | >12.5 | 0.098 | >12.5
CCC1OC(=O)CC(O)C(C)C(OC2OC(C)C(O)C(N(C)C)C2O)C(CC=O)CC(C)C(=NOCC=Cc2cnc3ccccc3c2)C=CC(C)=CC1CO (single isomer, unassigned) [Compound G] | 0.025 | 0.025 | 0.025 | 0.049 | >12.5 | 0.049 | >12.5 | 0.20 | 0.78 | 0.78 | >12.5 | >12.5 | >12.5 | 0.39 | >12.5

— patent US7247617B2, “Sixteen-member macrolide antiinfective agents” (Kosan Biosciences Incorporated, priority 2004, dated 2007)
